Data taken from patent US20120164148A1, “Compositions Containing JARID1B Inhibitors and Methods for Treating Cancer” (The Wistar Institute, priority 2009, published 2012).

Key:
JARID1B = assay: Validation of JARID1B shRNA knockdown clones (RNA, protein, BrdU, MTS, cell counts); assay type: cell-based, human; details: out of five shRNA clones
Description: Melanoma Samples and Cell Culture. Fresh human melanoma tissues and cells were obtained according to standard procedures, isolated and maintained in 2% fetal bovine serum (FBS)-substituted melanoma medium (‘Tu2%’) Smalley, et al. (2005) Am. J. Pathol. 166:1541-1554; Satyamoorthy, et al. (1997) Melanoma Res. 7 Suppl 2:S35-42). According to the isolation of neural stem cells and cancer stem cells from brain tumors by culturing of neurospheres (Yuan, et al. (2004) Oncogene 23:9392-9400; Galli, et al. (2004) Cancer Res. 64:7011-7021), melanoma spheres were propagated in mouse embryonic fibroblast (MEF)-conditioned human embryonic stem cell medium (hESCM) according to conventional methods (Fang, et al. (2005) supra). Before use, MEF-conditioned hESCM was mixed with fresh hESCM medium at a 7:3 ratio (‘hESCM4’) and basic fibroblast growth factor was added at 4 ng/ml. Depending on the cell line, sphere formation could be observed 2-6 weeks after starting culture in hESCM4. Spheres were dissociated by collagenase I/IV (Sigma, St. Louis, Mo.) and mechanical treatment, i.e., 200-250 units per ml DMEM (Cellgro) at 37° C. for 10 minutes plus subsequent pipetting. […]
Given the paradox of an increased in vitro self-renewal capacity without any effect on in vivo tumor initiation, it was determined whether JARID1B still could be important for the continuous maintenance of melanomas. […]

[1] = test system: WM3734^JARID1Bprom-EGFP cells; assay: Drug treatment of WM3734 JARID1Bprom-EGFP cells, flow cytometry of J/EGFP+ subpopulation and viable cells; assay type: cell-based, human; details: 72 hours of treatment, clinically relevant doses; threshold set at 5% (DMSO control)
Protocol: Left panels, Relative enrichment of the J/EGFP+subpopulation after 72 hours of treatment with a BRAF inhibitor (PLX4720), bortezomib (VEL), temozolomide (TMZ), or salinomycin (SAL) as determined by flow cytometry. The threshold (dotted line) for the J/EGFP+ subpopulation was set at 5% (DMSO control) based on JARID1B expression studies. Depicted box plots represent three independently performed experiments with flow cytometric determination of J/EGFP expression beyond the indicated threshold. Right panels, The number of viable cells within the total population was decreasing during drug treatment.
Flow Cytometry and Fluorescence Activated Cell Sorting. For detection of JARID1B promoter-driven EGFP signals, adherent cells were harvested with 0.05% trypsin and spheres were dissociated as described herein. Dead cells were excluded by staining for 7-AAD. After sorting, aliquots were microscopically checked and were cultured for a short-time to exclude disproportional enrichment of debris or apoptotic cells. Fluorescence-activated cell sorting was carried out using a CYTOMATION MOFLO cytometer (DakoCytomation). Flow cytometric detection of surface markers was done according to standard procedures. Briefly, cells were fixed in 4% paraformaldehyde (PFA) in PBS for 10 minutes and then were blocked with 1% BSA in PBS for 10 minutes at room temperature. Primary and secondary antibodies were incubated for 10 minutes at room temperature. Before and after antibody incubations, cells were washed three times with 1% BSA in PBS. Samples were analyzed using an EPICS XL instrument (Beckman-Coulter). Monoclonal antibodies were follows: anti-CD20 (APC-conjugated; BD PHARMINGEN), anti-CD133 (PE; Miltenyi Biotech), anti-p75/NGFR (APC; Miltenyi Biotech), and anti-MCAM (FITC; R&D Systems). Isotype-matched mouse APC- (BD PHARMINGEN), PE- (R&D Systems), or FITC-conjugated (R&D Systems) antibodies were used as controls. Flow cytometric isolation of side population cells was performed according to established methods (Goodell, et al. (1996) J. Exp. Med. 183:1797-1806). […]

WM3734 melanomas = assay: Bortezomib treatment of xenotransplanted WM3734 melanomas with JARID1B knockdown; assay type: in vivo, NOD/LtSscidIL2Rγ^null mice; details: 20 μg bortezomib intraperitoneally on days 20, 22, 25, 27; JARID1B knocked-down tumors vs sh scrambled control; p=0.024 (MANOVA)
Protocol: Xenotransplanted WM3734 melanomas (mean tumor volume ˜200 mm^3) were treated with 20 μg bortezomib (dissolved in PBS and injected intraperitoneally) on days 20, 22, 25, and 27 after xenotransplantation.
Xenotransplantation Assays and Metastasis Model. To address continuous tumor maintenance in vivo, serial xenotransplantation assays with JARID1B knockdown vs. control cells were performed in NOD/LtSscidIL2Rγ^null mice. For every passage, 10^4 cells in MATRIGEL®/Tu2% at a 1:1 dilution were injected subcutaneously in mice (5 mice per sample). One passage included: injection, tumor growth, tumor dissection, cell isolation (mechanical and collagenase I/IV treatment) and purification. Melanoma cell purification was done by three-day-puromycin treatment confirmed by MCAM flow cytometry. Verification of knockdown was carried out by QRT-PCR. […] Tumor growth was measured weekly using a caliper and was terminated when the first tumor of the series reached 1000 mm^3. Metastatic progression was measured in a spontaneous metastasis model. […] Formalin-fixed, paraffin-embedded (FFPE) sections of whole lungs were H&E-stained and the numbers of macro- and micrometastases were microscopically determined (20× magnification). Two representative frontal sections per lung were analyzed. […]

Row | Compound | knockdown phenotype (JARID1B) | relative enrichment for the J/EGFP+ subpopulation [1] | tumor volume (WM3734 melanomas)
1 | JARID1B—62: shRNA clone from Sigma targeting the coding sequence of JARID1B, SEQ ID NO:14 (CCGGCGAGATGGAATTAACAGTCTTCTCGAGAAGACTGTTAATTCCATCTCGTTTTT) | significant knockdown phenotypes | – | –
2 | CCCS(=O)(=O)Nc1ccc(F)c(C(=O)c2c[nH]c3ncc(Cl)cc23)c1F [PLX7420] | – | relative enrichment for the J/EGFP+ subpopulation | –
3 | sh JARID1B—58: shRNA clone from Sigma targeting the 3′UTR of JARID1B, SEQ ID NO:15 (CCGGCCCACCAATTTGGAAGGCATTCTCGAGAATGCCTTCCAAATTGGTGGGTTTTT) | significant knockdown phenotypes | – | –
4 | CC[C@@H](C(=O)[C@@H](C)[C@@H](O)[C@H](C)[C@@H]1O[C@@H]([C@@H](CC)C(=O)O)CC[C@@H]1C)[C@H]1O[C@]2(C=C[C@@H](O)[C@]3(CC[C@@](C)([C@H]4CC[C@](O)(CC)[C@H](C)O4)O3)O2)[C@H](C)C[C@@H]1C [salinomycin] | – | relative enrichment for the J/EGFP+ subpopulation | –
5 | CC(C)C[C@H](NC(=O)[C@H](Cc1ccccc1)NC(=O)c1cnccn1)B(O)O [bortezomib] | – | relative enrichment for the J/EGFP+ subpopulation | significantly lower tumor volume
